Data as given in PubChem BioAssay AID256 (DTP/NCI, 2004).
Where “and” joins values, the source holds several entries; their conditions need not be identical. Equal entries are not always repeated. Inconclusive results and toxic doses are left out.

System: CD2F1 mice, L1210 leukemia ip, survival T/C
Assay: NCI In Vivo Anticancer Drug Screen. Data for tumor model L1210 Leukemia (intraperitoneal) in CD2F1 (CDF1) mice
Conditions: higher = longer survival
Outline: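 Vehicle-treated tumor-bearing mice served as controls (C) for compound-treated mice (T). Reported figure is T divided by C.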

[1] = endpoint: mean survival time, dose: 100.0 mg/kg/injection, schedule: Q01DX001 (ip), vehicle: saline with Tween-80
[2] = endpoint: mean survival time, dose: 200.0 mg/kg/injection, schedule: Q01DX001 (ip), vehicle: saline with Tween-80
[3] = endpoint: mean survival time, dose: 400.0 mg/kg/injection, schedule: Q01DX001 (ip), vehicle: saline with Tween-80
[4] = endpoint: mean survival time, dose: 100.0 mg/kg/injection, schedule: Q01DX009 (ip), vehicle: saline
[5] = endpoint: mean survival time, dose: 200.0 mg/kg/injection, schedule: Q01DX009 (ip), vehicle: saline
[6] = endpoint: mean survival time, dose: 50.0 mg/kg/injection, schedule: Q01DX009 (ip), vehicle: Klucel (hydroxypropylcellulose) (HPC)
[7] = endpoint: mean survival time, dose: 100.0 mg/kg/injection, schedule: Q01DX009 (ip), vehicle: Klucel (hydroxypropylcellulose) (HPC)

With CSc1nc(NC2OC(CO)C(O)C(O)C2O)c(C(C)=O)c(=O)n1C (configuration not stated) the T/C (endpoint: median survival time, dose: 12.5 mg/kg/injection, schedule: Q01DX005 (ip), vehicle: saline with Tween-80) was 98 % of control, the T/C (endpoint: median survival time, dose: 25.0 mg/kg/injection, schedule: Q01DX005 (ip), vehicle: saline with Tween-80) was 98 % of control and the T/C (endpoint: median survival time, dose: 50.0 mg/kg/injection, schedule: Q01DX005 (ip), vehicle: saline with Tween-80) was 97 % of control. The T/C (endpoint: median survival time, dose: 100.0 mg/kg/injection, schedule: Q01DX005 (ip), vehicle: saline with Tween-80) was 100 % of control and the T/C (endpoint: median survival time, dose: 200.0 mg/kg/injection, schedule: Q01DX005 (ip), vehicle: saline with Tween-80) was 88 % of control.
In the case of CCN1/C(=C/C(C)=C/c2sc3ccccc3[n+]2CC)Sc2ccccc21, the T/C (endpoint: mean survival time, dose: 5.0 mg/kg/injection, schedule: Q01DX001 (ip), vehicle: other) is reported as 96 % of control, the T/C (endpoint: mean survival time, dose: 200.0 micrograms/kg/injection, schedule: Q04DX003 (ip), vehicle: Klucel (hydroxypropylcellulose) (HPC)) is reported as 104 % of control and the T/C (endpoint: mean survival time, dose: 400.0 micrograms/kg/injection, schedule: Q04DX003 (ip), vehicle: Klucel (hydroxypropylcellulose) (HPC)) is reported as 104 % of control.
With CC(C)=NNc1nc2c(N)ncnc2n1C1OC(CO)C(O)C1O (configuration not stated) the T/C (endpoint: mean survival time, dose: 12.5 mg/kg/injection, schedule: Q01DX005 (ip), vehicle: distilled water + Tween-80) was 97 % of control, the T/C (endpoint: mean survival time, dose: 12.5 mg/kg/injection, schedule: Q01DX005 (ip), vehicle: water) was 96 % of control and the T/C (endpoint: mean survival time, dose: 25.0 mg/kg/injection, schedule: Q01DX005 (ip), vehicle: distilled water + Tween-80) was 97 % of control. For the same compound, the T/C (endpoint: mean survival time, dose: 25.0 mg/kg/injection, schedule: Q01DX005 (ip), vehicle: water) was 94 % of control, the T/C (endpoint: mean survival time, dose: 50.0 mg/kg/injection, schedule: Q01DX005 (ip), vehicle: distilled water + Tween-80) was 97 % of control and the T/C (endpoint: mean survival time, dose: 50.0 mg/kg/injection, schedule: Q01DX005 (ip), vehicle: water) was 99 % of control. For the same compound, the T/C (endpoint: mean survival time, dose: 100.0 mg/kg/injection, schedule: Q01DX005 (ip), vehicle: distilled water + Tween-80) was 97 % of control, the T/C (endpoint: mean survival time, dose: 100.0 mg/kg/injection, schedule: Q01DX005 (ip), vehicle: water) was 99 % of control and the T/C (endpoint: mean survival time, dose: 200.0 mg/kg/injection, schedule: Q01DX005 (ip), vehicle: distilled water + Tween-80) was 100 % of control. For the same compound, the T/C (endpoint: mean survival time, dose: 200.0 mg/kg/injection, schedule: Q01DX005 (ip), vehicle: water) was 97 % of control.
With O=C(O)CCCCc1ccc([N+](=O)[O-])cc1 the T/C (endpoint: mean survival time, dose: 100.0 mg/kg/injection, schedule: Q04DX002 (ip), vehicle: other) was 105 % of control, the T/C (endpoint: mean survival time, dose: 200.0 mg/kg/injection, schedule: Q04DX002 (ip), vehicle: other) was 102 % of control and the T/C (endpoint: mean survival time, dose: 400.0 mg/kg/injection, schedule: Q04DX002 (ip), vehicle: other) was 97 % of control.
For CNCCN=c1ccc2c3c1c(O)c1c(O)ccc(=O)c1c3[nH]n2CCNCCO, the T/C (endpoint: median survival time, dose: 0.37 mg/kg/injection, schedule: Q01DX009 (ip), vehicle: water) was 152 % of control and 207 % of control, the T/C (endpoint: median survival time, dose: 0.75 mg/kg/injection, schedule: Q01DX009 (ip), vehicle: water) was 182 % of control and 195 % of control and the T/C (endpoint: median survival time, dose: 1.5 mg/kg/injection, schedule: Q01DX009 (ip), vehicle: water) was 154 % of control and 195 % of control. For the same compound, the T/C (endpoint: median survival time, dose: 3.0 mg/kg/injection, schedule: Q01DX009 (ip), vehicle: water) was 264 % of control and 280 % of control, the T/C (endpoint: median survival time, dose: 3.12 mg/kg/injection, schedule: Q01DX009 (ip), vehicle: water) was 337 % of control and the T/C (endpoint: median survival time, dose: 6.0 mg/kg/injection, schedule: Q01DX009 (ip), vehicle: water) was 120 % of control and 103 % of control. For the same compound, the T/C (endpoint: median survival time, dose: 6.25 mg/kg/injection, schedule: Q01DX009 (ip), vehicle: water) was 120 % of control.
For O=C(O)C(O)C(O)C(O)C(O)CO.[NH-]C1CCCCC1[NH-].[Pt+2] (configuration not stated), the T/C (endpoint: mean survival time, dose: 6.25 mg/kg/injection, schedule: Q04DX003 (ip), vehicle: saline) was 150 % of control and 290 % of control, the T/C (endpoint: mean survival time, dose: 12.5 mg/kg/injection, schedule: Q04DX003 (ip), vehicle: saline) was 230 % of control and 277 % of control and the T/C (endpoint: mean survival time, dose: 25.0 mg/kg/injection, schedule: Q04DX003 (ip), vehicle: saline) was 244 % of control and 314 % of control.
For CC(=O)COc1ccc(C)cc1, the T/C (endpoint: mean survival time, dose: 100.0 mg/kg/injection, schedule: Q04DX003 (ip), vehicle: saline with Tween-80) was 105 % of control, the T/C (endpoint: mean survival time, dose: 200.0 mg/kg/injection, schedule: Q04DX003 (ip), vehicle: saline with Tween-80) was 96 % of control and the T/C (endpoint: mean survival time, dose: 400.0 mg/kg/injection, schedule: Q04DX003 (ip), vehicle: saline with Tween-80) was 98 % of control.
With N#CCCC(=O)c1nc(N)nc(N)n1 the T/C (endpoint: mean survival time, dose: 50.0 mg/kg/injection, schedule: Q01DX009 (ip), vehicle: saline with Tween-80) was 91 % of control, the T/C (endpoint: mean survival time, dose: 100.0 mg/kg/injection, schedule: Q01DX009 (ip), vehicle: saline with Tween-80) was 91 % of control and the T/C (endpoint: mean survival time, dose: 200.0 mg/kg/injection, schedule: Q01DX009 (ip), vehicle: saline with Tween-80) was 91 % of control.
With O=c1ccn(CC(O)c2cc3ccccc3[nH]2)c(=O)[nH]1 (configuration not stated) the T/C (endpoint: mean survival time, dose: 100.0 mg/kg/injection, schedule: Q04DX002 (ip), vehicle: saline with Tween-80) was 112 % of control, the T/C (endpoint: mean survival time, dose: 200.0 mg/kg/injection, schedule: Q04DX002 (ip), vehicle: saline with Tween-80) was 112 % of control and the T/C (endpoint: mean survival time, dose: 400.0 mg/kg/injection, schedule: Q04DX002 (ip), vehicle: saline with Tween-80) was 108 % of control.
In the case of O=C(O)CNC1CCCC1, the T/C [1] is reported as 97 % of control, the T/C [2] is reported as 100 % of control and the T/C [3] is reported as 93 % of control.
With O/N=C(\CN1CCOCC1)c1ccc(Cl)cc1 the T/C (endpoint: mean survival time, dose: 50.0 mg/kg/injection, schedule: Q01DX009 (ip), vehicle: saline) was 107 % of control, the T/C [4] was 96 % of control and the T/C [5] was 103 % of control.
O=NN(CCCl)C(=S)Nc1ccccc1 was tested, and the T/C (endpoint: mean survival time, dose: 100.0 mg/kg/injection, schedule: Q01DX001 (ip), vehicle: other) was 98 % of control and the T/C (endpoint: mean survival time, dose: 200.0 mg/kg/injection, schedule: Q01DX001 (ip), vehicle: other) was 98 % of control.
For O=C(/C=C\c1ccc([N+]([O-])=Nc2ccc(/C=C/C(=O)c3ccccc3)cc2)cc1)c1ccccc1, the T/C [1] was 102 % of control, the T/C [2] was 86 % of control and the T/C [3] was 98 % of control.
In the case of CC(C)n1c(=S)[nH]c2ccccc2c1=O, the T/C [4] is reported as 97 % of control, the T/C [5] is reported as 100 % of control and the T/C (endpoint: mean survival time, dose: 400.0 mg/kg/injection, schedule: Q01DX009 (ip), vehicle: saline) is reported as 100 % of control.
For COc1cc(/C=N/n2c(-c3ccccc3)nc3ccccc3c2=O)cc(Br)c1O, the T/C [6] was 91 % of control, the T/C [7] was 105 % of control and the T/C (endpoint: mean survival time, dose: 200.0 mg/kg/injection, schedule: Q01DX009 (ip), vehicle: Klucel (hydroxypropylcellulose) (HPC)) was 102 % of control.
For CO[C@@]12[C@@H]3N[C@@H]3CN1C1=C(C(=O)C(Nc3cccc(O)c3)=C(C)C1=O)[C@@H]2COC(N)=O, the T/C (endpoint: median survival time, dose: 1.5 mg/kg/injection, schedule: Q01DX001 (ip), vehicle: water) was 113 % of control, the T/C (endpoint: median survival time, dose: 3.0 mg/kg/injection, schedule: Q01DX001 (ip), vehicle: water) was 119 % of control and the T/C (endpoint: median survival time, dose: 12.0 mg/kg/injection, schedule: Q01DX001 (ip), vehicle: water) was 122 % of control.
Nc1nc(N)c2nc(CSc3ccc(C(=O)NC(CCC(=O)O)C(=O)O)cc3)ccc2n1 (configuration not stated) was tested, and the T/C (endpoint: mean survival time, dose: 0.5 mg/kg/injection, schedule: Q01DX005 (ip), vehicle: sodium bicarbonate) was 121 % of control and the T/C (endpoint: mean survival time, dose: 2.0 mg/kg/injection, schedule: Q01DX005 (ip), vehicle: sodium bicarbonate) was 154 % of control.
CCCCOC(=O)c1ccc(NC(=O)NCCC)cc1 was tested, and the T/C (endpoint: mean survival time, dose: 100.0 mg/kg/injection, schedule: Q04DX003 (ip), vehicle: saline) was 101 % of control, the T/C (endpoint: mean survival time, dose: 200.0 mg/kg/injection, schedule: Q04DX003 (ip), vehicle: saline) was 101 % of control and the T/C (endpoint: mean survival time, dose: 400.0 mg/kg/injection, schedule: Q04DX003 (ip), vehicle: saline) was 97 % of control.
In the case of CSc1ccc(NC=O)cc1, the T/C (endpoint: mean survival time, dose: 75.0 mg/kg/injection, schedule: Q01DX001 (ip), vehicle: saline) is reported as 98 % of control, the T/C (endpoint: mean survival time, dose: 150.0 mg/kg/injection, schedule: Q01DX001 (ip), vehicle: saline) is reported as 100 % of control and the T/C (endpoint: mean survival time, dose: 300.0 mg/kg/injection, schedule: Q01DX001 (ip), vehicle: saline) is reported as 100 % of control.
CN1CCc2c(c3ccccc3c3ccccc23)C1 was tested, and the T/C (endpoint: mean survival time, dose: 3.12 mg/kg/injection, schedule: Q01DX009 (ip), vehicle: Klucel (hydroxypropylcellulose) (HPC)) was 104 % of control, the T/C (endpoint: mean survival time, dose: 6.25 mg/kg/injection, schedule: Q01DX009 (ip), vehicle: Klucel (hydroxypropylcellulose) (HPC)) was 101 % of control and the T/C (endpoint: mean survival time, dose: 12.5 mg/kg/injection, schedule: Q01DX009 (ip), vehicle: Klucel (hydroxypropylcellulose) (HPC)) was 97 % of control. The T/C (endpoint: mean survival time, dose: 25.0 mg/kg/injection, schedule: Q01DX009 (ip), vehicle: Klucel (hydroxypropylcellulose) (HPC)) was 95 % of control, the T/C [6] was 106 % of control and the T/C [7] was 113 % of control.
For N#CSCc1c(Cl)c(Cl)c(CSC#N)c(Cl)c1Cl, the T/C (endpoint: mean survival time, dose: 75.0 mg/kg/injection, schedule: Q04DX003 (ip), vehicle: saline) was 95 % of control, the T/C (endpoint: mean survival time, dose: 150.0 mg/kg/injection, schedule: Q04DX003 (ip), vehicle: saline) was 98 % of control and the T/C (endpoint: mean survival time, dose: 300.0 mg/kg/injection, schedule: Q04DX003 (ip), vehicle: saline) was 98 % of control.
